The values below come from patent publication US11318143B2, “Treatment of alcohol use disorder” (priority 2017, dated 2022).

Test [1] deals with subjects with alcohol use disorder. The note with it: treatment of AUD, literature, cited from earlier work; for effect size (Cohen's D): meta-analyses.
The subject of test [2] is dopamine levels in the rat nucleus accumbens. Put plainly: in vivo microdialysis in the nucleus accumbens in awake freely moving rats. Further details: species or system Wistar rats. The note with it: for extracellular dopamine levels in the dialysate (percent of baseline): FIG. 1, varenicline 1.5 mg/kg, bupropion 2.5 mg/kg i.p., sampling 140 minutes, preliminary data; for extracellular DA levels / DA release in the rat nAc: FIGS. 1 to 5, overall statement. On the procedure: Shown are dopamine levels measured in the dialysate expressed as percent of baseline. Drugs (mg/kg) or control solution (NaCl) was injected i.p. directly after time-point 0.
FIGS. 2 and 3 show results from in vivo microdialysis in the nucleus accumbens in awake freely moving male Wistar rats after injection of varenicline (1.5 mg/kg, i.p.) or bupropion (2.5, 5 and 10 mg/kg i.p.) Dopamine levels in the dialysate are expressed as percent of baseline. Drugs or control solution (NaCl) was injected directly after time-point 0.
FIG. 5 illustrates the Area Under the Curve (AUC) 0-140 minutes (Bup 5 vs Var+Bup 5: p<0.001.
A). Experiments that examine the effects of varenicline and bupropion (separately and in combination) on dopamine release in the nucleus accumbens (nAc; a central part of the brain reward system) using in vivo microdialysis in awake, freely moving rats have commenced. […] Rats were surgically implanted with a microdialysis probe into nAc, which two days later was coupled to a perfusion pump allowing liquid sampling from the extracellular space. After a stable baseline was obtained varenicline (1.5 mg/kg, […].), bupropion (2.5 mg/kg, i.p.) or control solution was administered and sampling continued for 140 minutes. […] Further, as long as bupropion produces an effect, this effect adds to the varenicline effect when the two drugs are given in combination.

The test system of the next test is relapses to drinking. Particulars: chronic i.m. administration (Wiesbeck et al., 2001); cited from earlier work.
Test [3] has as its system nicotinic acetylcholine receptors (nAChRs). Particulars: systemic administration or site-directed injections in the VTA (Blomqvist et al., 1996; Ericson et al., 1998); cited from earlier work.
In test [4] the test system is alcohol dependent individuals. Particulars: cited from earlier work.
The subject of test [5] is ethanol-induced stimulation and euphoria. Particulars: McKee et al. (2009); cited from earlier work.

Consider `CC(=O)NCCCS(=O)(=O)O` [Acamprosate], for which, in test [1], the “Numbers-needed-to-treat (NNT)” value is 7.5 and the “effect size (Cohen's D)” value was 0.32.

With `O=C1CC[C@@]2(O)[C@H]3Cc4ccc(O)c5c4[C@@]2(CCN3CC2CC2)[C@H]1O5` [Naltrexone], in test [1], the “Numbers-needed-to-treat (NNT)” value was 8.6 and the “effect size (Cohen's D)” value is listed as 0.2.

In the case of `CC(NC(C)(C)C)C(=O)c1cccc(Cl)c1` (stereo not shown) [bupropion], in test [2], the “extracellular dopamine levels in the dialysate (percent of baseline)” value was “raise extracellular dopamine levels” and the “extracellular DA levels / DA release in the rat nAc” value is “increase extracellular DA levels”.

Turning to `OCCN1CCN(CC/C=C2\c3ccccc3Sc3ccc(C(F)(F)F)cc32)CC1` [fluphentixole], the “relapses to drinking as compared to placebo” value with relapses to drinking is on record as “worsened the condition”.

For the molecule `CNC1(C)C2CCC(C2)C1(C)C` (stereo not shown) [mecamylamine], the “ethanol intake and preference” value in test [3] was “reduces”.

Take `c1cnc2cc3c(cc2n1)[C@@H]1CNC[C@H]3C1` [varenicline]: in test [2], the “extracellular dopamine levels in the dialysate (percent of baseline)” value is listed as “raise extracellular dopamine levels” and the “extracellular DA levels / DA release in the rat nAc” value is “increase extracellular DA levels”. The effect result in test [4] (females (O'Malley et al., 2017)) was “no effect”. Also, the effect size in test [4] (male alcoholics (O'Malley et al., 2017)) was 0.45. Also, in test [5], the “ethanol-induced stimulation and euphoria” value is “blocked”.
